Results published in patent publication US6017878A (McGill University, priority 1994, dated 2000).
“And” between values parts separate entries of the source, which are not always exact repeats. Equal entries are not always repeated.

How the values were obtained:
[1] = tested on: PC12 cells; assay: Toxicity control: cell death of PC12 cells after culture with the compounds; type: cell-based, rat
[2] = target: T1, E25 (trkA), trkA receptor expressing fibroblast transfectants (Homo sapiens, UniProt P04629); assay: 125I-NGF binding to E25 transfectants, with dose response and saturation studies; conditions: for % INHIBITION of 125I-NGF binding, E25 (trkA): mean ±2 SEM
T1 construct: expressed in transfected cells; host or cells: NIH-3T3 mouse fibroblasts (E25), from Dr. Mariano Barbacid; Jing et al. 1992
T1 sequence (P04629 33-790 isoform P04629-2 limits assumed): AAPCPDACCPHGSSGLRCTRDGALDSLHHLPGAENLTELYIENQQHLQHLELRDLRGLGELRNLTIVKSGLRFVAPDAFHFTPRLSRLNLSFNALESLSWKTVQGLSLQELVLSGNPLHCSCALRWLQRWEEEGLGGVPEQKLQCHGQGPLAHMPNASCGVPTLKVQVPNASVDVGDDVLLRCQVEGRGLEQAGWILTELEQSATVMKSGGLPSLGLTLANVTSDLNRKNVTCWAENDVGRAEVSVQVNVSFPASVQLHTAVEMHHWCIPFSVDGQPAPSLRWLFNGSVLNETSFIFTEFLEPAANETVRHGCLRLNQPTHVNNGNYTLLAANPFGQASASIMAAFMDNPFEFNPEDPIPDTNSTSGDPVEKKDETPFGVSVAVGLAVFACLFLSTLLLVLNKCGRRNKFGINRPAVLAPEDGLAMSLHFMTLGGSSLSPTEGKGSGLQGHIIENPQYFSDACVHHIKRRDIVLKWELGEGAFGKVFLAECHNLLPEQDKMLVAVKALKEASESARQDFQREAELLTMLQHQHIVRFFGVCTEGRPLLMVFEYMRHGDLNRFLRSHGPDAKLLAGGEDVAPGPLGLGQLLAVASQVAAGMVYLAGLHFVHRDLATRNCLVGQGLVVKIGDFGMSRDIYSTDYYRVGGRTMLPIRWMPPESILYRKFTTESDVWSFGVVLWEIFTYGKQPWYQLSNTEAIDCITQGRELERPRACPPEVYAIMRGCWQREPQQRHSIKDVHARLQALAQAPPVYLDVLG
Experimental: (§1) All cells were cultured as described. PC12 pheochromocytoma cells expressing rat p140 trkA and p75 LNGFR (American Type Culture Collection, 7th edition, 1992, Catalog of cell lines and hybridomas, R. Hay Editor, accession No. CRL 1721) were grown in DMEM supplemented with 20% Fetal Bovine Serum (FBS), 10% Horse serum, and antibiotics. PC12 cells used for experiments were grown on collagen coated dishes. The NIH-3T3 fibroblast transfectants R7 (p75 and trkA double transfectant) and E25 (trkA transfectant) (Jing, S. et al. (1992) Neuron, 9: 1067-1079; kindly provided by Dr. Mariano Barbacid, Bristol-Meyers-Squibb, NJ) were grown in RPMI media supplemented with 5% FBS and antibiotics and the appropriate drug selection.
(§2) Assays were performed >4 times, each from at least three different synthesis (inhibitory analogs) or 1-3 times each from 2 different synthesis (non-inhibitory analogs).
(§3) Analogs were used at a concentration of ^~ 40 μM.
(§4) Data shown represents an average percent inhibition of binding ±2 standard errors of the mean (2 SEM). […] NT=not tested. (*) assayed only once.
(§5) Percent inhibition was determined by applying the following formula: [formula]
Saturation binding assays were performed with trkA receptor expressing E25 cells as described above.

[3] = tested on: bFGF mediated neurite outgrowth in PC12 cells; assay: bFGF mediated neurite outgrowth in PC12 cells (specificity control); type: cell-based, rat; conditions: analog ~10 μM, 50 ng/ml bFGF
Experimental: (§6) Cells without growth factor added served as baseline, whereas cells with growth factor but without analog added were used for maximum neurite outgrowth determination. All analogs were tested in at least three separate assays from three different synthesis. Samples were coded and analysis were performed blind.
(§7) Representative results for 3 different analogs are shown. For a summary and complete list of the results from these biological tests see Table II.

[4] = target: T2, surface trkA receptors on E25 cells (Homo sapiens, UniProt P04629); assay: trkA receptor internalization in E25 cells (FACScan); type: cell-based; conditions: 10 μM, 30 min, 37° C. permissive vs 4° C. 0.05% sodium azide
T2 construct: expressed in transfected cells; host or cells: NIH-3T3 mouse fibroblasts (E25), from Dr. Mariano Barbacid; Jing et al. 1992
T2 sequence (P04629 33-790 isoform P04629-2 limits assumed): as above
Excerpt: Expression of surface trkA receptors was quantified by FACScan analysis.
FIG. 4A illustrates FACScan profiles using an anti-trkA specific monoclonal antibody versus control mouse IgG.
FIG. 4B is a graph of the analysis of the % reduction of cell surface mean fluorescence channel (MFC, using the Lysis (B.D.) software) after receptor internalization.

[5] = target: T3, R7 (trkA-p75), NIH-3T3 p75 and trkA double transfectant (Homo sapiens, UniProt P04629); assay: 125I-NGF binding to R7 transfectants; conditions: analog ~40 μM, mean ±2 SEM
T3 construct: expressed in transfected cells; host or cells: NIH-3T3 mouse fibroblasts (R7), from Dr. Mariano Barbacid; Jing et al. 1992
T3 sequence (P04629 33-796): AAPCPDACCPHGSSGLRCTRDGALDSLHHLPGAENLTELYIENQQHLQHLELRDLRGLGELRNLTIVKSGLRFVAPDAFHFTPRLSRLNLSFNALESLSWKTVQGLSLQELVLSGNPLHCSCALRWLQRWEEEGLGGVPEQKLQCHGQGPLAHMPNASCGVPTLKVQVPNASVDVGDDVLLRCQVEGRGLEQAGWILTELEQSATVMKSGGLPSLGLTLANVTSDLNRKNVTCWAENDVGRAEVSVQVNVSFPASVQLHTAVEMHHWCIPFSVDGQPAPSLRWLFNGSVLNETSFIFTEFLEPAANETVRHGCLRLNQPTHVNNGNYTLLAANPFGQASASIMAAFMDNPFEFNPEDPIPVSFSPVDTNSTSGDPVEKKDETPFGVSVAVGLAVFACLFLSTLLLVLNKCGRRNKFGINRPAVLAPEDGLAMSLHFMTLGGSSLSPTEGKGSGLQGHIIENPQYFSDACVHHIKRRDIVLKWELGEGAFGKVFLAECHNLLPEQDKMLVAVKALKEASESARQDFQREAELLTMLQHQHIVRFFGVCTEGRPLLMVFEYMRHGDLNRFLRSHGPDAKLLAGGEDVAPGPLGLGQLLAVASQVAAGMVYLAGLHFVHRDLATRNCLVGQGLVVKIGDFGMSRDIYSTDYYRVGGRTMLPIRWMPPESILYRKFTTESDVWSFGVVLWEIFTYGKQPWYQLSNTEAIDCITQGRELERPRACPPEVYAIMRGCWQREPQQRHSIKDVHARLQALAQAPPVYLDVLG
Experimental: as §1, §2, §3, §4, §5

[6] = tested on: NGF induced neurite outgrowth in PC12 cells; assay: NGF induced neurite outgrowth assay in PC12 cells; type: cell-based, rat; conditions: analog ~10 μM, 50 ng/ml NGF; for INHIBITION OF NEURITE OUTGROWTH (1): PC12 cells, arbitrary units by comparison with NGF dose response curves
Experimental: as §1, §6, §7
Significant inhibition is indicated by +++.

[7] = target: T1, E25 (trkA), trkA receptor expressing fibroblast transfectants; assay: 125I-NGF binding to E25 transfectants, with dose response and saturation studies; conditions: dose response 0.4 μM to 200 μM analog, constant 200 pM 125I-NGF; read-out: IC50, inhibition of 125I-NGF binding
[8] = target: T4, PC12 (trkA-p75) (Rattus norvegicus, UniProt P35739); assay: 125I-NGF binding to PC12 cells; conditions: mean ±2 SEM
T4 construct: PC12 pheochromocytoma cells expressing rat p140 trkA and p75 LNGFR; host or cells: PC12 rat pheochromocytoma cells
T4 sequence (P35739 33-799): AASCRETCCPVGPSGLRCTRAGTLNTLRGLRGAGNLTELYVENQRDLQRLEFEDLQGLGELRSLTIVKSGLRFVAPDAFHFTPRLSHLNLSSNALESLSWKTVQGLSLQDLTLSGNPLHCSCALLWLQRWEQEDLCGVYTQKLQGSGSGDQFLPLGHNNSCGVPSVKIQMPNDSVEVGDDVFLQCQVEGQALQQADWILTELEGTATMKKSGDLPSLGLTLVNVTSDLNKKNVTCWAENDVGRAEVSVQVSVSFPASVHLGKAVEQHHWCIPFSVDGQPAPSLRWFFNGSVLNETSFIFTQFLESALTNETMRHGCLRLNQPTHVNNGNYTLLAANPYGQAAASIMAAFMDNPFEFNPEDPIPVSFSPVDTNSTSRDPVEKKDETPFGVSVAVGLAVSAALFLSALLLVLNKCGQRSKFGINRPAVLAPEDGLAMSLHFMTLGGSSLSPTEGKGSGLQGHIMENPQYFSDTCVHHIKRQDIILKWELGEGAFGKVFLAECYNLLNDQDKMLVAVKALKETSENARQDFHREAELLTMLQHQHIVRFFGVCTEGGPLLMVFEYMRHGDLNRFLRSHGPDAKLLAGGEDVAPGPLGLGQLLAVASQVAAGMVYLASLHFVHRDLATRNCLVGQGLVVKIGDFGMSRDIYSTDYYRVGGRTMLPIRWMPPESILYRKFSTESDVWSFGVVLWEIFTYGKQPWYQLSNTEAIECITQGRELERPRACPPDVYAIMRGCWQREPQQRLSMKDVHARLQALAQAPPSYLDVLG
Experimental: as §1
Analogs were tested for their ability to affect binding of ^125 I-NGF (73.1 μCi/μg NEN, DuPont). […] After 15 min, ^125 I-NGF was added to a final concentration of 0.4-2 nM (^~ 40,000 cpm) and the mixtures were further incubated for 40 min at 4° C. Cells were then washed in binding buffer, pelleted, and cell-associated ^125 I-NGF was determined. […] Assays were performed >4 times, each from at least three different synthesis (inhibitory analogs) or 1-3 times each from 2 different synthesis (non-inhibitory analogs). Receptor saturation experiments were similarly performed with increasing concentrations of ^125 I-NGF ligand and a constant dose of inhibitor.
To determine the mechanism of biological antagonistic activity by the cyclic analogs, ^125 I-NGF binding measurements were performed with cell lines expressing both p75 and trkA receptors (PC12 cells and R7 transfectants) or only trkA receptors (E25 transfectants) (Table III). Analogs were used at a concentration of ^~ 40 μM.
as §4, §5

[9] = tested on: NGF biological activity; conditions: Longo et al. 1990; cited from earlier work

Fmoc-X C T A I K G K E C X [C(29-35ΔD30A)]
cell death / necrosis after culture with the compounds [1]: did cause necrosis

Fmoc-X C T D E K Q A C X [C(92-97)]
% INHIBITION of 125I-NGF binding, E25 (trkA) ([2]; analog ~40 μM, 40 µM): 64.9% and 64.9 ± 12.4% | effect on bFGF mediated PC12 neurite outgrowth (in words) [3]: did not affect | disappearance of surface trkA receptors (receptor internalization) [4]: induced the disappearance of surface trkA receptors at the permissive conditions only | % INHIBITION of 125I-NGF binding, R7 (trkA-p75) ([5]; 40 µM): 24.3% and 24.3 ± 9.2% | effect on NGF mediated PC12 neurite outgrowth (in words) [6]: significantly inhibited | INHIBITION OF NEURITE OUTGROWTH (1) [6]: +++ (equivalent to 6.25 ng/ml NGF)

Fmoc-X C T D E K Q C X [C(92-96)]
nature of inhibition in saturation analysis ([2]; 45 μM analog, 125I-NGF 0-1.13 nM, E25 cells): competitive nature | % INHIBITION of 125I-NGF binding, E25 (trkA) ([2]; analog ~40 μM, 40 µM): 71.3% and 71.3 ± 13.5% | effect on bFGF mediated PC12 neurite outgrowth (in words) [3]: did not affect | IC50 [7]: 23.5 ± 16 µM | % INHIBITION of 125I-NGF binding, R7 (trkA-p75) ([5]; 40 µM): 51.1% and 51.1 ± 0.7% | % INHIBITION of 125I-NGF binding, PC12 (trkA-p75) ([8]; analog ~40 μM): 86.4 ± 10.4% | effect on NGF mediated PC12 neurite outgrowth (in words) [6]: significantly inhibited

N N S F V I N V (NNSFVINV) [R(42-49), randomized 42-49 control]
INHIBITION OF NEURITE OUTGROWTH (1) [6]: + (equivalent to 25 ng/ml NGF)

Nerve Growth Factor [NGF]
% INHIBITION of 125I-NGF binding, PC12 (trkA-p75) ([8]; 0.1 uM unlabeled NGF): 69.5 ± 4.5%

R A S N P V E S G (RASNPVESG) [L(59-67), linear 59-67 control]
% INHIBITION of 125I-NGF binding, E25 (trkA) ([2]; analog ~40 μM): -9.5 ± 7.5% | INHIBITION OF NEURITE OUTGROWTH (1) [6]: + (equivalent to 25 ng/ml NGF)

T T D E K Q A A W (TTDEKQAAW) [L(91-99), linear 91-99 control]
effect on 125I-NGF binding to E25 cells (in words) ([2]; analog ~40 μM): None of the other cyclic, linear or randomized analogs had significant effects | % INHIBITION of 125I-NGF binding, E25 (trkA) ([2]; analog ~40 μM): 2.1 ± 8.5% | % INHIBITION of 125I-NGF binding, R7 (trkA-p75) [5]: 3.8 ± 1.0% | INHIBITION OF NEURITE OUTGROWTH (1) [6]: + (equivalent to 25 ng/ml NGF)

V N I N N S V F (VNINNSVF) [L(42-49), linear 42-49 control]
% INHIBITION of 125I-NGF binding, E25 (trkA) ([2]; analog ~40 μM): -16.0 ± 15.1% | % INHIBITION of 125I-NGF binding, R7 (trkA-p75) [5]: 8.0%

X C A S N P V E C [C(60-65)]
INHIBITION OF NEURITE OUTGROWTH (1) [6]: ++ (equivalent to 12.5 ng/ml NGF)

peptide with sequences from NGF residues 23-35: prior-art linear peptide of Longo et al. with sequences from NGF residues 23-35 (GDKTTATDIKGKE; UniProt P01138 144-156, looked up, fragment)
concentration of peptide at which inhibition of NGF biological activity occurred [9]: 2 mM
